Test results: patent publication US9045470B2, “Compounds and compositions as TLR activity modulators” (IRM LLC, priority 2009, dated 2015)

Assays:
human TLR7 = biological target: T1, human TLR7 (Homo sapiens, UniProt Q9NYK1); test: Reporter gene assay: HEK293 cells stably transfected with human TLR7 and NF-kB-driven luciferase reporter; assay type: cell-based
T1 construct: expressed in transfected cells; host or cells: HEK 293 (human embryonic kidney 293), stably transfected; co-transfected pNifty-Luciferase reporter
T1 sequence (Q9NYK1 27-1049): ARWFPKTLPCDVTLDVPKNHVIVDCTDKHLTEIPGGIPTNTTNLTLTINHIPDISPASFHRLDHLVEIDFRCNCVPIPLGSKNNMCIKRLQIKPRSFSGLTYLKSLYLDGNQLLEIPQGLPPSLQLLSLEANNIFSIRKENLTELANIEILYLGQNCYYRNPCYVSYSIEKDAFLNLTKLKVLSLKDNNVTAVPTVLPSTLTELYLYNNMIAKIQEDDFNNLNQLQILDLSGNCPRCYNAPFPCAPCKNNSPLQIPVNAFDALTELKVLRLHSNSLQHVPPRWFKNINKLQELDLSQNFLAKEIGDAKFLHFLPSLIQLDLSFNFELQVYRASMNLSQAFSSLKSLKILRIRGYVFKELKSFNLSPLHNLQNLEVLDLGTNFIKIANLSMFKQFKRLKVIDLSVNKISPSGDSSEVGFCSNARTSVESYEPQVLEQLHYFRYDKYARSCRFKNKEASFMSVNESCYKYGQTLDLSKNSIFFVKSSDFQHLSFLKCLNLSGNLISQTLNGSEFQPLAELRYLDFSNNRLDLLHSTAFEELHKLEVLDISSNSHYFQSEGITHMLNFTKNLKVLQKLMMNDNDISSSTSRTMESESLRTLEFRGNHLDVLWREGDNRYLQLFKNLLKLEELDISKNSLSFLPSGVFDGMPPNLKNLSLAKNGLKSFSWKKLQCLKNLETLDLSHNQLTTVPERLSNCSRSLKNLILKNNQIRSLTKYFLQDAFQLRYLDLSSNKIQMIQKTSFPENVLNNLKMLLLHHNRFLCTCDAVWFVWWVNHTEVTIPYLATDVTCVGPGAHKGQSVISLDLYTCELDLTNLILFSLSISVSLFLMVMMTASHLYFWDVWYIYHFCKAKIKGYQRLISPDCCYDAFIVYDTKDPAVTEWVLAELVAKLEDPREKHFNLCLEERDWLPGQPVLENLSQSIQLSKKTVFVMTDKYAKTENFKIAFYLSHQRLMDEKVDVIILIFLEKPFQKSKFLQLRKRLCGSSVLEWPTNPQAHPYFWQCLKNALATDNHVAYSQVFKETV
Procedure: Human embryonic kidney 293 (HEK 293) cells were stably transfected with human TLR7 and an NF-kB-driven luciferase reporter vector (pNifty-Luciferase). As a control assay, normal Hek293 transfected with pNifty-Luc were used. Cells were cultured in DMEM supplemented with 2 mM L-glutamine, 10% heart inactivated FBS, 1% penicillin and streptomycin, 2 μg/ml puromycin (InvivoGen #ant-pr-5) and 5 μg/ml of blasticidin (Invitrogen #46-1120). Bright-Glo™ Luciferase assay buffer and substrate were supplied by Promega #E263B and #E264B (assay substrate and buffer respectively). 384 well clear-bottom plates were supplied by Greiner bio-one (#789163-G) and were custom bar-coded plates.
Cells were plated at 25,000 cells/well in 384-well plates in a final volume of 50 μl of media. Cells were allowed to adhere to the plates after overnight (18 hours) culture at 37° C. and 5% CO2. Serially diluted experimental and positive control compounds were then dispensed to each well and incubated for 7 hours at 37° C. and 5% CO2. Cells stimulated with DMSO alone also serve as negative controls. After the incubation, 30 μl of the pre-mix assay buffer and substrate buffer were added to each well according to manufacturer's instructions.
The EC50 value in those experiments is given as that concentration of the test compound in question that provoke a response halfway between the baseline and maximum responses. […] Such EC50 values are obtained relative to the activity of resiquimod set to 100%.

[1] = Desorption from aluminum hydroxide with KH2PO4 and n-butanol extraction, HPLC; assay type: physicochemical
Procedure: An organic solvent extraction method was used to evaluate whether compound 1 was covalently bound to aluminum hydroxide. The formulation was prepared as follows: 2 mg/ml aluminum hydroxide, 100 μg/dose compound 1, 10 mM histidine buffer) and the pH was adjusted to 9. A control formulation without aluminum hydroxide was also prepared.
One ml of the formulation containing Alum was mixed with 1 ml of KH2PO4 1M pH 9 (0.5M final conc, pH 9) and was left in gentle agitation overnight at 37° C. to allow desorption of compound 1 (compound 5) from the aluminum hydroxide via ligand exchange with the phosphate anions. Organic extraction was then performed: 1 ml of each sample was mixed with 1 ml of n-butanol and vortexed. After the formation of 2 phases, the upper phase (butanol) was recovered, dried with N2 and resuspended in MeOH/10 mM NaOH. HPLC analysis was run both for the formulation supernatants and for the butanol extracted samples (C18 column; 0-100% B in 2 min; A=0.1% TFA in H2O; B=0.1% TFA in ACN).
The adsorption of compound 16 and compound 18 to aluminum hydroxide was also evaluated using the alum formulation described above for compound 1. […] In addition, SDS PAGE analysis of antigen binding in the presence of compound 16 or compound 18 was carried out as described above.

[2] = Binding to aluminum hydroxide adjuvant, HPLC of formulation supernatant; assay type: physicochemical; settings: aluminum hydroxide 2 mg/mL, room temperature and 37° C., 1, 5 and 24 hours
Procedure: The binding of the compounds of Formula (I) provided herein to aluminum-containing adjuvants at pH 9 and pH 6.5 was evaluated using HPLC to monitor the presence of the compound of Formula (I) in the supernatant.
(§1) Compound 1 (0.5 mg/mL) was dissolved in 10 mM NaOH and added to aluminum hydroxide adjuvant (2 mg/mL) resulting in a 100 μg/dose formulation. The supernatant was evaluated with HPLC using a ballistic gradient (from 10% CH3CN-0.1% TFA to 100% CH3CN-0.1% TFA in 2.5 minutes) on a C18 ([…]×4.6 mm) ACE column at 45° C. To evaluate the effect of supernatant temperature and incubation time on binding, the supernatant was evaluated at a supernatant temperature of room temperature and at 37° C. after 1 hour, 5 hours and 24 hours. A control without aluminum hydroxide was also evaluated.
as §1, with “5 (1” for “1 (0.5”
as §1, with “formulation. The pH of the solution was adjusted to pH 6.5 using HCl.” for “formulation.”
as §1, with “5 (1” for “1 (0.5”, “histidine buffer (1 mg/mL)” for “NaOH”

[3] = Binding to alum in 10 mM histidine buffer, LC-MS/MS of supernatant; assay type: physicochemical; settings: 10 mM histidine buffer pH 6.8; final compound 0.1 mg/mL; 37° C. for 5 hours; 100% minus % unbound
Procedure: The resulting solution was diluted 10-fold with blank histidine buffer to a final compound concentration of 0.1 mg/mL. Diluted solutions were incubated at 37° C. for 5 hours. The samples were centrifuged at 14,000 rpm for 10 minutes to pellet the insoluble. The supernatant (along with an internal standard) was then evaluated by LC-MS/MS using a ballistic gradient (from 5% CH3CN-0.5% formic acid to 95% CH3CN-1.0% formic acid in 3.5 minutes) on a Waters Atlantis dC18 (50 mm×2.1 mm) column at room temperature against a calibration curve prepared at known compound concentrations ranging from 0.005 to 50 μM. The concentration in the supernatant was calculated as % unbound to alum compared to control; the % bound to alum was calculated as 100% minus % unbound.

Cc1ccc2c(c1)nc(N)c1ncc(CCc3ccc(OCCCP(=O)(O)O)cc3C)cc12 [Compound 1, 3-(4-(2-(5-amino-8-methylbenzo[f][1,7]naphthyridin-2-yl)ethyl)-3-methylphenoxy)propylphosphonic acid]
EC50 (human TLR7): 0.226 µM
quantity of compound in supernatant of formulation treated with KH2PO4 (desorption by phosphate anions) ([1]; 0.5M KH2PO4 pH 9, overnight 37° C.): Increased quantities
Concentration (mg/ml), phosphate/extract ([1]; alum formulation treated with 0.5M KH2PO4, n-butanol extracted sample): 0.119 ± 0.001 mg/mL
Concentration (mg/ml), phosphate supernatent ([1]; alum formulation treated with 0.5M KH2PO4 pH 9 overnight at 37° C., supernatant): 0.059 ± 0.001 mg/mL
Concentration (mg/ml), extaract ([1]; alum formulation, n-butanol extracted sample): 0.027 ± 0.001 mg/mL
Concentration (mg/ml), control/extract ([1]; control formulation without aluminum hydroxide, n-butanol extracted sample): 0.217 ± 0.001 mg/mL
Concentration (mg/ml), supernatant control ([1]; control formulation without aluminum hydroxide, supernatant): 0.329 ± 0.001 mg/mL
Concentration (mg/ml), supernatent ([1]; formulation with 2 mg/ml aluminum hydroxide, 10 mM histidine buffer pH 9, supernatant): 0.005 ± 0.001 mg/mL
presence of compound in supernatant when aluminum hydroxide included in formulation (HPLC) ([2]; pH 6.5 (adjusted with HCl)): not present in the supernatant
presence of compound in supernatant when aluminum hydroxide included in formulation (HPLC) ([2]; pH 9, dissolved in 10 mM NaOH): not present in the supernatant

Cc1ccc2c(c1)nc(N)c1ncc(CCc3ccc(OCCCC(F)(F)P(=O)(O)O)cc3C)cc12 [Compound 5, 4-(4-(2-(5-amino-8-methylbenzo[f][1,7]naphthyridin-2-yl)ethyl)-3-methylphenoxy)-1,1-difluorobutylphosphonic acid]
EC50 (human TLR7): 0.308 µM
presence of compound in supernatant when aluminum hydroxide included in formulation (HPLC) ([2]; pH 6.7, 10 mM histidine buffer): not present in the supernatant
presence of compound in supernatant when aluminum hydroxide included in formulation (HPLC) ([2]; pH 9, dissolved in 10 mM NaOH): not present in the supernatant

Cc1cc(OCCCC(F)(F)P(=O)(O)O)ccc1CCc1cnc2c(N)nc3cc(CCC(=O)O)ccc3c2c1 [Compound 16, 3-(5-amino-2-(4-(4,4-difluoro-4-phosphonobutoxy)-2-methylphenethyl)benzo[f][1,7]naphthyridin-8-yl)propanoic acid]
EC50 (human TLR7): 0.137 µM
compound in supernatant after addition of aluminum hydroxide (HPLC) ([1]; alum formulation as described for compound 1): no compound was observed in the supernatant
% Alum bound in Histidine buffer [3]: 94.5%

Cc1cc(OCCOCCOCCP(=O)(O)O)ccc1CCc1cnc2c(N)nc3cc(CCC(=O)O)ccc3c2c1 [Compound 20, 3-(5-amino-2-(2-methyl-4-(2-(2-(2-phosphonoethoxy)ethoxy)ethoxy)phenethyl)benzo[f][1,7]naphthyridin-8-yl)propanoic acid]
EC50 (human TLR7): 0.384 µM
% Alum bound in Histidine buffer [3]: 97.0%
